Reference: ChEMBL document CHEMBL5316338, “Discovery of Novel PTP1B Inhibitors with Once-Weekly Therapeutic Potential for Type 2 Diabetes: Design, Synthesis, and In Vitro and In Vivo Investigations of BimBH3 Peptide Analogues” (J Med Chem, 2023)
pIC50: −log10 of the molar value. Square brackets hold non-standard residues; d marks the D form. Peptide text beside a SMILES is read from it. * marks the point of attachment. ξ: configuration not given here. C19 diacid = O=C(O)CCCCCCCCCCCCCCCCCC(=O)*; C17 diacid = O=C(O)CCCCCCCCCCCCCCCC(=O)*; Docosanoyl = CCCCCCCCCCCCCCCCCCCCCC(=O)*; C16 diacid = O=C(O)CCCCCCCCCCCCCCC(=O)*; Nonadecanoyl = CCCCCCCCCCCCCCCCCCC(=O)*; C15 diacid = O=C(O)CCCCCCCCCCCCCC(=O)*; Heptadecanoyl = CCCCCCCCCCCCCCCCC(=O)*; Pentadecanoyl = CCCCCCCCCCCCCCC(=O)*; Palmitoyl = CCCCCCCCCCCCCCCC(=O)*; Tridecanoyl = CCCCCCCCCCCCC(=O)*; Lauroyl = CCCCCCCCCCCC(=O)*; ξR = N=C(N)NCCCC(N)C(=O)O

What was measured:
[1] = molecular target: T1, Tyrosine-protein phosphatase non-receptor type 1 (Homo sapiens) (UniProt P18031); assay: Inhibition of N-terminal His tagged recombinant human PTP1B expressed in Escherichia coli using pNPP as substrate assessed as substrate hydrolysis at 40 umol/L relative to control; conditions: dose 40.0 µmol/L
T1 sequence (whole entry): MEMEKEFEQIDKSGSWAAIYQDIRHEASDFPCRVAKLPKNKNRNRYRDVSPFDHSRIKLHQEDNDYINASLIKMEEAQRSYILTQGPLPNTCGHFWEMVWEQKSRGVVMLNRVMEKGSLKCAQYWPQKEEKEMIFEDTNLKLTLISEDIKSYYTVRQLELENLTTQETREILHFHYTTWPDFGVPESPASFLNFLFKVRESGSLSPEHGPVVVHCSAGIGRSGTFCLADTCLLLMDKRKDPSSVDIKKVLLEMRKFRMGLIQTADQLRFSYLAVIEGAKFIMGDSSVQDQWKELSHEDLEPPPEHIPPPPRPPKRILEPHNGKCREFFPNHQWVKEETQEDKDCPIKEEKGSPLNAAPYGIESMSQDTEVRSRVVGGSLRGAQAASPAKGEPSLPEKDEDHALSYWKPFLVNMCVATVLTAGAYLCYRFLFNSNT

[2] = molecular target: T2, Tyrosine-protein phosphatase non-receptor type 1 (Homo sapiens, UniProt P18031); assay: Inhibition of N-terminal His tagged recombinant human PTP1B expressed in Escherichia coli using pNPP as substrate assessed as substrate hydrolysis
T2 sequence (P18031 whole entry): T1 sequence (whole entry)

Proteinase K = assay: Stability of compound assessed as Proteinase K (unknown origin) mediated compound degradation by measuring half-life by HPLC analysis; format: ADME
Pepsin = assay: Stability of compound assessed as Pepsin (unknown origin) mediated compound degradation by measuring half-life by HPLC analysis; format: ADME; conditions: human
chymotrypsin [3] = molecular target: chymotrypsin (Homo sapiens, UniProt P17538+P40313+Q6GPI1+Q99895); assay: Stability of compound assessed as chymotrypsin (unknown origin) mediated compound degradation by measuring half-life by RP-HPLC analysis; format: ADME, protein assay
carboxypeptidase A = molecular target: T3, carboxypeptidase A (Homo sapiens, UniProt P15085); assay: Stability of compound assessed as carboxypeptidase A (unknown origin) mediated compound degradation by measuring half-life by RP-HPLC analysis; format: ADME
T3 sequence (P15085 whole entry): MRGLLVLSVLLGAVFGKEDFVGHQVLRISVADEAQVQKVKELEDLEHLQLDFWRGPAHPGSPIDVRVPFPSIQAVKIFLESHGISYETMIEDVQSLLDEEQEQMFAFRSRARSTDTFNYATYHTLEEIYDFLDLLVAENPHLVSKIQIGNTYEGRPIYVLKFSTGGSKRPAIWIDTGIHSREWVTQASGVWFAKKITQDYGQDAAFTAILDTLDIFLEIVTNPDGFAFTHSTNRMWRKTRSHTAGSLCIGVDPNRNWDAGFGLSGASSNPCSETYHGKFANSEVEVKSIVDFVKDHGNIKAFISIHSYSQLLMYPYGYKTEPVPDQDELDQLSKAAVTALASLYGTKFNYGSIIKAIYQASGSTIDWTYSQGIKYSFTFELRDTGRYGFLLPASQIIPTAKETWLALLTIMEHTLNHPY

[4] = Stability of compound assessed as Proteinase K (unknown origin) mediated compound degradation by measuring fold change of half-life by HPLC analysis relative to BimBH312-mer peptide; format: ADME
[5] = Stability of compound assessed as Pepsin (unknown origin) mediated compound degradation by measuring fold change of half-life by HPLC analysis relative to BimBH312-mer peptide; format: ADME; conditions: human
Chymotrypsin [6] = molecular target: Chymotrypsin (Homo sapiens, UniProt Q99895+P17538+P40313+Q6GPI1); assay: Stability of compound assessed as chymotrypsin (unknown origin) mediated compound degradation by measuring fold change of half-life by RP-HPLC analysis relative to BimBH312-mer peptide; format: ADME, protein assay
Carboxypeptidase A1 = molecular target: T4, Carboxypeptidase A1 (Homo sapiens, UniProt P15085); assay: Stability of compound assessed as carboxypeptidase A (unknown origin) mediated compound degradation by measuring fold change of half-life by RP-HPLC analysis relative to BimBH312-mer peptide; format: ADME
T4 sequence (P15085 whole entry): T3 sequence (P15085 whole entry)

`CCCCCCCCCCCCCCCCCCCCCC(=O)N[C@H](C(=O)N[C@@H](C)C(=O)N[C@@H](CCC(N)=O)C(=O)N[C@@H](CCC(=O)O)C(=O)N[C@@H](CC(C)C)C(=O)N[C@@H](CCCNC(=N)N)C(=O)NC(CCCNC(=N)N)C(=O)N[C@H](C(=O)NCC(=O)N[C@@H](CC(=O)O)C(=O)N[C@@H](CCC(=O)O)C(=O)N[C@@H](Cc1ccccc1)C(=O)O)[C@@H](C)CC)[C@@H](C)CC` (stereo not given in full) (Docosanoyl-IAQELR[ξR]IGDEF-OH) gave an inhibition [1] of over 50% and a pIC50 [2] of 5.17.
Molecule `CCCCCCCCCCCCCCCCC(=O)N[C@H](C(=O)N[C@@H](C)C(=O)N[C@@H](CCC(N)=O)C(=O)N[C@@H](CCC(=O)O)C(=O)N[C@@H](CC(C)C)C(=O)N[C@@H](CCCNC(=N)N)C(=O)N[C@@H](CCCNC(=N)N)C(=O)N[C@H](C(=O)NCC(=O)N[C@@H](CC(=O)O)C(=O)N[C@@H](CCC(=O)O)C(=O)N[C@@H](Cc1ccccc1)C(=O)O)[C@@H](C)CC)[C@@H](C)CC` (Heptadecanoyl-IAQELRRIGDEF-OH) has an inhibition [1] of over 50% and a pIC50 [2] of 5.59.
In the case of `CCCCCCCCCCCC(=O)N[C@H](C(=O)N[C@@H](C)C(=O)N[C@@H](CCC(N)=O)C(=O)N[C@@H](CCC(=O)O)C(=O)N[C@@H](CC(C)C)C(=O)N[C@@H](CCCNC(=N)N)C(=O)N[C@@H](CCCNC(=N)N)C(=O)N[C@H](C(=O)NCC(=O)N[C@@H](CC(=O)O)C(=O)N[C@@H](CCC(=O)O)C(=O)N[C@@H](Cc1ccccc1)C(=O)O)[C@@H](C)CC)[C@@H](C)CC` (Lauroyl-IAQELRRIGDEF-OH), the inhibition [1] was over 50% and the pIC50 [2] was 5.56.
In the case of `CCCCCCCCCCCCCCCCCCC(=O)N[C@H](C(=O)N[C@@H](C)C(=O)N[C@@H](CCC(N)=O)C(=O)N[C@@H](CCC(=O)O)C(=O)N[C@@H](CC(C)C)C(=O)N[C@@H](CCCNC(=N)N)C(=O)NC(CCCNC(=N)N)C(=O)N[C@H](C(=O)NCC(=O)N[C@@H](CC(=O)O)C(=O)N[C@@H](CCC(=O)O)C(=O)N[C@@H](Cc1ccccc1)C(=O)O)[C@@H](C)CC)[C@@H](C)CC` (stereo not given in full) (Nonadecanoyl-IAQELR[ξR]IGDEF-OH), the inhibition [1] was over 50% and the pIC50 [2] was 6.36.
Molecule `CCCCCCCCCCCCCCCC(=O)N[C@H](C(=O)N[C@@H](C)C(=O)N[C@@H](CCC(N)=O)C(=O)N[C@@H](CCC(=O)O)C(=O)N[C@@H](CC(C)C)C(=O)N[C@@H](CCCNC(=N)N)C(=O)N[C@@H](CCCNC(=N)N)C(=O)N[C@H](C(=O)NCC(=O)N[C@@H](CC(=O)O)C(=O)N[C@@H](CCC(=O)O)C(=O)N[C@@H](Cc1ccccc1)C(=O)O)[C@@H](C)CC)[C@@H](C)CC` (Palmitoyl-IAQELRRIGDEF-OH) has an inhibition [1] of over 50%, a pIC50 [2] of 6.02 and a half-life (Proteinase K) of 2.82 h. The half-life (Pepsin) was 2.7 h, the half-life (chymotrypsin [3]) was 0.56 h and the half-life (carboxypeptidase A) was 3.19 h. For the same molecule, the “fold change (FC)” value [4] was 56.4, the “fold change (FC)” value [5] was 122.7 and the “fold change (FC)” value (Chymotrypsin [6]) was 13. The “fold change (FC)” value (Carboxypeptidase A1) was 99.7.
Work on `CCCCCCCCCCCCCCC(=O)N[C@H](C(=O)N[C@@H](C)C(=O)N[C@@H](CCC(N)=O)C(=O)N[C@@H](CCC(=O)O)C(=O)N[C@@H](CC(C)C)C(=O)N[C@@H](CCCNC(=N)N)C(=O)N[C@@H](CCCNC(=N)N)C(=O)N[C@H](C(=O)NCC(=O)N[C@@H](CC(=O)O)C(=O)N[C@@H](CCC(=O)O)C(=O)N[C@@H](Cc1ccccc1)C(=O)O)[C@@H](C)CC)[C@@H](C)CC` (Pentadecanoyl-IAQELRRIGDEF-OH) yielded an inhibition [1] of over 50% and a pIC50 [2] of 5.78.
`CCCCCCCCCCCCC(=O)N[C@H](C(=O)N[C@@H](C)C(=O)N[C@@H](CCC(N)=O)C(=O)N[C@@H](CCC(=O)O)C(=O)N[C@@H](CC(C)C)C(=O)N[C@@H](CCCNC(=N)N)C(=O)N[C@@H](CCCNC(=N)N)C(=O)N[C@H](C(=O)NCC(=O)N[C@@H](CC(=O)O)C(=O)N[C@@H](CCC(=O)O)C(=O)N[C@@H](Cc1ccccc1)C(=O)O)[C@@H](C)CC)[C@@H](C)CC` (Tridecanoyl-IAQELRRIGDEF-OH) gave an inhibition [1] of over 50% and a pIC50 [2] of 6.08.
In the case of `CC[C@H](C)[C@H](NC(=O)CCCCCCCCCCCCCC(=O)O)C(=O)N[C@@H](C)C(=O)N[C@@H](CCC(N)=O)C(=O)N[C@@H](CCC(=O)O)C(=O)N[C@@H](CC(C)C)C(=O)N[C@@H](CCCNC(=N)N)C(=O)N[C@@H](CCCNC(=N)N)C(=O)N[C@H](C(=O)NCC(=O)N[C@@H](CC(=O)O)C(=O)N[C@@H](CCC(=O)O)C(=O)N[C@@H](Cc1ccccc1)C(=O)O)[C@@H](C)CC` ({C15 diacid}-IAQELRRIGDEF-OH), the inhibition [1] was over 50% and the pIC50 [2] was 5.81.
`CC[C@H](C)[C@H](NC(=O)CCCCCCCCCCCCCCC(=O)O)C(=O)N[C@@H](C)C(=O)N[C@@H](CCC(N)=O)C(=O)N[C@@H](CCC(=O)O)C(=O)N[C@@H](CC(C)C)C(=O)N[C@@H](CCCNC(=N)N)C(=O)N[C@@H](CCCNC(=N)N)C(=O)N[C@H](C(=O)NCC(=O)N[C@@H](CC(=O)O)C(=O)N[C@@H](CCC(=O)O)C(=O)N[C@@H](Cc1ccccc1)C(=O)O)[C@@H](C)CC` ({C16 diacid}-IAQELRRIGDEF-OH) gave an inhibition [1] of over 50% and a pIC50 [2] of 5.54.
Work on `CC[C@H](C)[C@H](NC(=O)CCCCCCCCCCCCCCCC(=O)O)C(=O)N[C@@H](C)C(=O)N[C@@H](CCC(N)=O)C(=O)N[C@@H](CCC(=O)O)C(=O)N[C@@H](CC(C)C)C(=O)N[C@@H](CCCNC(=N)N)C(=O)NC(CCCNC(=N)N)C(=O)N[C@H](C(=O)NCC(=O)N[C@@H](CC(=O)O)C(=O)N[C@@H](CCC(=O)O)C(=O)N[C@@H](Cc1ccccc1)C(=O)O)[C@@H](C)CC` (stereo not given in full) ({C17 diacid}-IAQELR[ξR]IGDEF-OH) yielded an inhibition [1] of over 50% and a pIC50 [2] of 5.87.
For `CC[C@H](C)[C@H](NC(=O)CCCCCCCCCCCCCCCCCC(=O)O)C(=O)N[C@@H](C)C(=O)N[C@@H](CCC(N)=O)C(=O)N[C@@H](CCC(=O)O)C(=O)N[C@@H](CC(C)C)C(=O)N[C@@H](CCCNC(=N)N)C(=O)NC(CCCNC(=N)N)C(=O)N[C@H](C(=O)NCC(=O)N[C@@H](CC(=O)O)C(=O)N[C@@H](CCC(=O)O)C(=O)N[C@@H](Cc1ccccc1)C(=O)O)[C@@H](C)CC` (stereo not given in full) ({C19 diacid}-IAQELR[ξR]IGDEF-OH), the inhibition [1] was over 50% and the pIC50 [2] was 5.90.
